How the values were obtained:
PSMA receptor = biological target: T1, PSMA receptor (Homo sapiens, UniProt Q04609); assay: Same-day (Day 0) versus next-day (Day 1) PET imaging of patients; format: in vivo; conditions: ^18F-labelled ligand as SOC
T1 construct: localises at sites that overexpress the PSMA receptor and are indicative of a cancer; from tissue; host or cells: Primary prostate cancer and metastatic lesions (lymph node, bone, prostatic bed) in living patients

LNCap tumor = conditions: mouse, in vivo
Text: Ex vivo tumor uptake expressed as percentage injected activitiy per gram of tissue (% lAg) (mean±/−SEM, n=3/group) in LNCap tumor bearing NSG mice following injection of either monomeric [^64Cu]Cu-SarPSMA (2 MBq, 0.9 nmol of peptide) or dimeric [^64Cu]Cu-Sar-bisPSMA (2 MBq, 0.2 nmol of peptide).

T1 sequence (Q04609 whole entry): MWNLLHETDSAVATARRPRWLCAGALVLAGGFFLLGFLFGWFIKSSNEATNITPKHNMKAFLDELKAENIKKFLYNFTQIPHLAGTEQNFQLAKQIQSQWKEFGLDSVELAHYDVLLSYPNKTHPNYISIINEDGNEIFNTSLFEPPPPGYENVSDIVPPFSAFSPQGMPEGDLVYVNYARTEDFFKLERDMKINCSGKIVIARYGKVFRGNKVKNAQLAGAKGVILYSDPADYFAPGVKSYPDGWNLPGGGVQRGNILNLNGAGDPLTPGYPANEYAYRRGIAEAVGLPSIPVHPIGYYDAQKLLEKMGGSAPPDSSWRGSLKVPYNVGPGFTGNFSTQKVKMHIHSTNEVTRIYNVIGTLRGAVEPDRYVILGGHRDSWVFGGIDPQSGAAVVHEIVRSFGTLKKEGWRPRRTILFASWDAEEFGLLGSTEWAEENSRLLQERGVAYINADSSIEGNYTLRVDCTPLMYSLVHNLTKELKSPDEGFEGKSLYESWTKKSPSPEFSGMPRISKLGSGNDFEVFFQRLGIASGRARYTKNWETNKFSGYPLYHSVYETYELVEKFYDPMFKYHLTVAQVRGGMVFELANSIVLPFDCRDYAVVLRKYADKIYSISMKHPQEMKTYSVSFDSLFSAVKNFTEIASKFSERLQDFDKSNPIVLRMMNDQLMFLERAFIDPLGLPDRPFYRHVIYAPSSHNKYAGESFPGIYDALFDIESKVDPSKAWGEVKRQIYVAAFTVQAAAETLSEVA

SMILES	Screening result on SOC PET/CT (FIG. 9A) (PSMA receptor)	Uptake and retention at tumors, dimer versus monomer (FIG. 1) (LNCap tumor)
O=C(O)CC[C@H](NC(=O)N[C@@H](CCCCNC(=O)c1ccc([18F])nc1)C(=O)O)C(=O)O [^18F-DCFPyL, DCFPyL, reference compound]	negative/equivocal	–
CC12CNCCNCC(NC(=O)CCCC(=O)N[C@H](Cc3ccccc3)C(=O)N[C@H](Cc3ccccc3)C(=O)NCCCCCCCC(=O)NCCCC[C@H](NC(=O)N[C@@H](CCC(=O)O)C(=O)O)C(=O)O)(CNCCNC1)CNCCNC2 [^64Cu-SarPSMA, metal not drawn]	–	less uptake and retention

From US20260232851A1, “METHODS FOR THE DETECTION AND DIAGNOSIS OF CANCERS ASSOCIATED WITH OVEREXPRESSION OF PSMA RECEPTOR” (CLARITY PHARMACEUTICALS LIMITED, priority 2023, published 2026)
